Assay results reported in US20080254439A1, “Plant Extract and Use Thereof as a Cryoprotective Agent” (priority 2005, published 2008).

Legend:
[1] = test system: rat hepatocytes; assay: Plating efficiency by LDH activity; type: cell-based; conditions: culture period 3 hours
Protocol: Thawing of cryopreserved hepatocytes. The frozen hepatocytes were thawed quickly by gentle agitation in a 37° C. water bath. Viability assays were performed on the hepatocyte suspension. For adherence and metabolic assays, the hepatocyte suspension was diluted 10-fold by addition of cold WME medium, immediately after thawing. […] After centrifugation (4° C., 50 g, 2 min), hepatocytes were suspended in 10 ml of WME medium. Hepatocytes were washed twice as above, then suspended at 3.5×10^5/ml in WME and cultured in tissue culture plates in WME medium supplemented with insulin and gentamicin in a humidified atmosphere of 5% CO2 and 95% air at 37° C. After 3 h, the medium was changed and cells were incubated overnight in L-15 medium supplemented with insulin and gentamicin. Plating efficiency. Plating efficiency was determined by measuring the LDH activity in cells prior to seeding and in 3 and 24 h-old cultures. Plating efficiency was defined as the LDH activity in 24 h-old cultures divided by the LDH activity in pre-culture cells.

[2] = test system: CYP2B; assay: PROD assay after 24 h induction with benzo-a-pyrene in cryopreserved hepatocytes; type: cell-based, rat; conditions: 48 h after seeding, FIG. 5A
Protocol: (§1) Enzymatic activity and protein expression of cytochrome P450 isoforms. CYP1A1 and 2B enzymatic activities were measured in hepatocyte cultures induced with benzo-a-pyrene (10 μM). Cells were washed 2 times with PBS and the substrates EROD (8 μM) or PROD (17 μM) (λexc: 530 nm; λem: 585 nm) were added to the culture dishes and incubated for 1 h. The supernatant (300 μl) was mixed with 200 μl of ETOH and the activity in 200 μl of the mixture was measured using an ELISA reader at 585 nm. Enzymatic activity was determined using a standard curve ranging from 0 to 200 μM of resorufin.

[3] = test system: rat hepatocytes; assay: Adherence and cellular morphology by confocal microscopy; type: cell-based; conditions: 24 h after seeding, FIG. 3
Protocol: Adherence and cellular morphology. Adherence and cellular morphology were evaluated by confocal microscopy. For the confocal microscopy observations, tissue culture plates coated with collagen were used. All analyses were carried out using the confocal microscope MRC1024 from BioRad (Microscience, Cambridge, Mass.) equipped with an argon laser (excitation at 488 nm) combined with an inverted microscope Eclipse Model TE 3000 (Nikon, Montreal, QC) with objectives of 40× Hoffman.

[4] = test system: CYP1A1; assay: EROD assay after 24 h induction with benzo-a-pyrene in cryopreserved hepatocytes; type: cell-based, rat; conditions: 48 h after seeding, FIG. 5A
Protocol: as §1

[5] = test system: rat hepatocytes; assay: Ammonium detoxification to urea (urea determination); type: cell-based; conditions: after 4 days in culture; FIG. 4B
Protocol: Urea determination. To evaluate the hepatocyte-mediated biotransformation of ammonia to urea, seeded hepatocytes were exposed to L-15 culture medium containing 10 mM NH4Cl. Samples of media were collected at the beginning and after 24 h intervals of exposure to ammonia, during 3 days. Urea concentration in the samples was measured calorimetrically using the urea nitrogen reagent set (BioTron Diagnostics, Hemet, Calif.) and an ELISA reader at 540 nm. Concentrations of urea were determined using a standard curve ranging from 0 to 45 mg/dl of urea. The results are presented as μg urea/10^6 cells.

[6] = test system: rat hepatocytes; assay: Viability of seeded thawed hepatocytes by LDH release; type: cell-based; conditions: after 24 h in culture; cryopreserved 7 days; FIG. 2
Protocol: The frozen hepatocytes were thawed quickly by gentle agitation in a 37° C. water bath. Viability assays were performed on the hepatocyte suspension. For adherence and metabolic assays, the hepatocyte suspension was diluted 10-fold by addition of cold WME medium, immediately after thawing. A 30% isotonic Percoll centrifugation step was performed to remove dead cells when viability was lower than 80%. After centrifugation (4° C., 50 g, 2 min), hepatocytes were suspended in 10 ml of WME medium. […] After 3 h, the medium was changed and cells were incubated overnight in L-15 medium supplemented with insulin and gentamicin.
Lactate dehydrogenase (LDH) activity was determined in the medium of seeded hepatocytes as a measure of hepatocyte deterioration as described by Moldeus et al. (17). The hepatocyte culture medium was removed daily and the activity of the LDH released into the medium was quantified (18).

[7] = test system: isolated rat hepatocytes; assay: Viability of suspensions of rat hepatocytes after freezing, calcein/PI test by flow cytometry; type: cell-based; conditions: 7 days of freezing; 1.5×10^6 cells/ml; 20 mg protein/extract or 15% DMSO in WME; FIG. 1
Protocol: Hepatocytes were isolated from male Sprague-Dawley rats (120-180 g), obtained from Charles River Canada (Saint-Constant, QC), in a two-step collagenase digestion technique (13; 14). […] Cell viability was evaluated by flow cytometry (FACScan™, Becton Dickinson, Oakville, ON) with 2 μM PI (16).
Cryopreservation of isolated hepatocytes. Immediately after isolation, the hepatocyte suspension was added to a mixture of ice-cold WME medium supplemented with 10% FBS and non-acclimated (NA) or CA wheat protein extracts (WPEs) in cold cryovials. […] The tubes containing cells were then frozen at a cooling rate of 1° C./min in a controlled freezing container (Nalgene, Rochester, N.Y.) to −80° C. for one day, and then transferred to liquid nitrogen.
Viability assays. After freeze/thaw cycles, hepatocyte suspensions were stained with the fluorescent probes 4 μM calcein and 2 μM PI in WME medium for 5 minutes. The samples were analyzed by flow cytometry (excitation at 488 nm) using a Becton Dickinson FACScan™. The number of live cells expressing green fluorescence of calcein and the number of dead cells expressing red fluorescence of PI were determined with Cell Quest™ software (Becton Dickinson, Oakville, ON).

[8] = test system: rat hepatocytes; assay: Albumin secretion by sandwich ELISA; type: cell-based; conditions: after 4 days in culture; FIG. 4A
Protocol: Determination of albumin secretion. Albumin secretion from hepatocytes was quantified every 24 h, until 96 h, in different hepatocyte culture media by the sandwich enzyme-linked immunosorbent assay (ELISA) according to Uotila et al. (19), with minor modifications (20). Briefly, 96-well plates (Nunc, Napierville, Ill.) were coated with anti-rat albumin rabbit antiserum (1 μg/ml). The plates were incubated for 30 min at room temperature (RT), then at 4° C. overnight, washed with phosphate buffered saline (PBS), blocked for 30 min at RT with 5% FBS in PBS, and then rewashed with PBS. Serial dilutions of sample and albumin standard were added (200 μl/well). The plates were incubated for III at RT and washed with PBS supplemented with 0.05% Tween-20 (PBS-T). Thereafter, the secondary antibody (peroxidase-conjugated anti-rat albumin; 2 μg/ml) was added and the plates were incubated for 1 h at RT. After 3 washings with PBS-T, the plates were incubated with the substrate o-phenylendiamine (OPND) (0.1 M NaH2PO4, 1 mg/ml OPND, 0.4 μl/ml H2O2) for 30 min at RT in the dark. The reaction was stopped with 4 M H2SO4. Albumin concentrations were determined at 550 nm using a standard curve ranging from 0 to 250 ng/dl of rat albumin using an ELISA reader ([sequence]luor Plus™, Tecan, Calif.).

Relative activity of P450 CYP2B compared to fresh hepatocytes [2]: decreased slightly | Relative activity of P450 CYP1A1 compared to fresh hepatocytes [4]: decreased slightly
SMILES: C[S+](C)[O-] [DMSO, dimethyl sulfoxide]
Plating efficiency [1]: 64.9 ± 1.7% | Cell-to-cell contacts [3]: no cell-cell contacts were detected | Initial detoxification activity maintained (urea production) [5]: 16% | Viability (LDH) of thawed hepatocytes in culture [6]: 60.2% | Viability of rat hepatocytes after freezing [7]: 62.5% | Albumin secretory activity maintained [8]: 48%
